{"source": "patent US10945994B2", "about": "“Combinations comprising a pyrrolidine-2,5-dione IDO1 inhibitor and an anti-body” (Pfizer Inc., priority 2015, dated 2021)", "key": {"[1]": {"target": "mouse TDO2 (Mus musculus (Mouse), UniProt P48776)", "sequence (P48776 whole entry)": "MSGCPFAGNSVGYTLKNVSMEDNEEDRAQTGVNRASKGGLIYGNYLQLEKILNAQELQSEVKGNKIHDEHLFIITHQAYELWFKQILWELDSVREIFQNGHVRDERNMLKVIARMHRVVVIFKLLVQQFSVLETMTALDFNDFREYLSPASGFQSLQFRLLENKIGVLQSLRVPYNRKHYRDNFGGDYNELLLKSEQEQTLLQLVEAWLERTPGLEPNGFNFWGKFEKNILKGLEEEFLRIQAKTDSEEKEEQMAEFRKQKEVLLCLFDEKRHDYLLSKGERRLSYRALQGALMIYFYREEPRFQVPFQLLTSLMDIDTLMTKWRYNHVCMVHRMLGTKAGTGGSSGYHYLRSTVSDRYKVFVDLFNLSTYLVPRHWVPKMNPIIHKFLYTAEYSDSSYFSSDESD", "test": "TDO2 activity assay in P815 mouseTDO2 clone 12 cells", "assay_type": "cell-based", "description": "P815 mTDO2 c112 cells were generated as described in Pilotte et al, Proc Natl Acad Sci, 109(7): 2497-2502 (2012). They were seeded in 96-well plates (50,000 cells/well), treated with increasing concentrations of compounds and incubated for 16-18 h. Kynurenine concentrations were determined as described above. The reaction was run with single replicate."}, "[2]": {"system": "PancO2 pancreas cancer cells", "test": "In vivo efficacy in PancO2 pancreatic cancer syngeneic model", "set-up": "species or system C57/Bl6 mice", "conditions": "200 mg/kg BID oral", "description": "In vivo efficacy studies were performed on PancO2 syngeneic tumor model of C57/Bl6 mice implanted sub-cutaneously. Five millions PancO2 pancreas cancer cells were implanted sub-cutaneously to 7 weeks old C57/Bl6 mice (day 0). Animals were randomized based on tumor size when tumor average reached 60 mm^3 (between day 10 and 12) into different treatment cohorts. The Compound was administered orally twice per day (approximately at 9 am and 5 pm) starting the day of randomization. The test compound shown below in the table was suspended into Methocel® vehicle and sonicated before oral administration to animals using gavage needles. Treatment was administered daily until the end of the study. All experimental animals were monitored for body weight changes weekly. Tumor volume was measured weekly using a caliper device and calculated with the following formula: Tumor volume=0.5×(length×width^2). Studies were terminated before tumor volumes reached […]. TGI (% tumor growth inhibition) was determined as\nTreatment was administered daily until the end of the study. Tumor volume was measured weekly using a caliper device and calculated with the following formula: Tumor volume=0.5×(length×width^2). Mice were considered as dead when tumor size reached 400 mm^3. […] SEM refers to standard error of measurement."}, "[3]": {"target": "IDO1 (Homo sapiens (Human), UniProt P14902)", "sequence (P14902 whole entry)": "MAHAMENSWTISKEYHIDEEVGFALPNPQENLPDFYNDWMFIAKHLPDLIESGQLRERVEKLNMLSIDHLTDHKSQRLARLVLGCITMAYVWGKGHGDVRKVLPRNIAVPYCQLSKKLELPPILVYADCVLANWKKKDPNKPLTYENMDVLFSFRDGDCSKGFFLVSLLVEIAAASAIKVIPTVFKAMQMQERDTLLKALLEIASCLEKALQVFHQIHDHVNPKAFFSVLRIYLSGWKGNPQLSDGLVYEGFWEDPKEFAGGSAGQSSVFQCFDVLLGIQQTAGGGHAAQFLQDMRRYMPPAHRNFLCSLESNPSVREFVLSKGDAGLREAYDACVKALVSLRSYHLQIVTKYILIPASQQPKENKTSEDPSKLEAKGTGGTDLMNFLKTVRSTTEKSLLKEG", "test": "IDO1 enzymatic activity by mass spectrometry assay", "assay_type": "biochemical", "conditions": "human enzyme; varied tryptophan and inhibitor concentrations", "description": "(§1) The full length complementary deoxyribonucleic acid (cDNA) for human IDO1 was cloned into a pFastbac-1 based vector and the full length cDNA for mouse and dog was cloned into a pET24a based vector. […] Human IDO1 was expressed in insect cells and purified using Ni affinity column. The mouse and dog IDO1 were expressed in Escherichia coli BL21 (DE3) and purified using a Ni affinity column. To obtain non-tagged, pure, and hemin loaded IDO1, TEV protease treated and tag removed protein was incubated with 10× molar ratio of hemin (dissolved in 25 mM NaOH) to protein at 4° C. overnight followed by size exclusion chromatography (SEC) for human IDO1 and anion exchange and SEC for mouse and dog IDO1.\nThe inhibition of human, dog and mouse IDO1 was measured by quantitating tryptophan and the generation of kynurenine by MS. […] The HCl stops the enzyme reactions and also converts the N-formyl kynurenine to kynurenine. […] Detection of tryptophan and kynurenine was accomplished following injection of assay reaction (injection loop volume is 10 μL) onto an Agilent Graphite Type D cartridge in 0.01% trifluoroacetic acid (TFA) plus 0.09% formic acid and eluted using 80% acetonitrile, 0.09% formic acid and 0.01% TFA. […]"}, "[4]": {"system": "B16-F10 cells", "test": "B16-F10 melanoma model, combination with anti-PD-L1 and anti-4-1BB", "assay_type": "in vivo, C57BL/6J mice", "conditions": "PF-06840003 600 mg/kg BID, anti-4-1BB 1 mg/kg, anti-PD-L1 10 mg/kg d9, 12, 15, 18", "description": "B16-F10 cells were obtained from the ATCC and grown following instructions on ATCC's website. 2×10^5 cells were implanted in […] PBS sc in the right flank of female C57BL/6J (Jackson labs) mice. Mice (n=20) were randomized into treatment groups and treatment initiated on day 9 after implant at a mean tumor size of 60 mm3. Antibody treatments were given as i.p. injection on day 9, 12, 15 and 18. anti-PD-L1 antibody (clone 10F.9G2; rat IgG2b) was purchased from BioxCell. anti-4-1BB antibody (MAB9371; rat IgG1—murinized) was purchased from R&D systems. […] All animal experimentation was approved in advance by and executed following Pfizer's IACUC."}, "[5]": {"system": "4T1 breast cancer cells", "test": "In vivo efficacy in 4T1 breast cancer syngeneic model", "set-up": "species or system Balb/c mice", "conditions": "100 mg/kg BID oral", "description": "In vivo efficacy studies were performed on 4T1 syngeneic tumor model of Balb/c mice implanted orthotopically in the mammary gland. One hundred thousand 4T1 breast cancer cells (ATCC® CRL-2539™)] were implanted orthotopically within the mammary gland of 7 weeks old Balb/c mice (day 0). Animals were randomized based on tumor size when tumor average reached 60 mm^3 (between day 7 and 11) into different treatment cohorts. The test compound was administered orally twice per day (approximately at 9 am and […]) starting the day of randomization. The test compounds were suspended into Methocel™ cellulose ether vehicle and sonicated before oral administration to animals using gavage needles. Treatment was administered daily until the end of the study. All experimental animals were monitored for body weight changes twice weekly. Tumor volume was measured twice a week by a caliper device and calculated with the following formula: Tumor volume=0.5×(length×width^2). Studies were terminated before tumor volumes reached […]. TGI (% tumor growth inhibition) was determined as […]"}, "[6]": {"target": "mouse IDO1 (Mus musculus (Mouse), UniProt P28776)", "sequence (P28776 whole entry)": "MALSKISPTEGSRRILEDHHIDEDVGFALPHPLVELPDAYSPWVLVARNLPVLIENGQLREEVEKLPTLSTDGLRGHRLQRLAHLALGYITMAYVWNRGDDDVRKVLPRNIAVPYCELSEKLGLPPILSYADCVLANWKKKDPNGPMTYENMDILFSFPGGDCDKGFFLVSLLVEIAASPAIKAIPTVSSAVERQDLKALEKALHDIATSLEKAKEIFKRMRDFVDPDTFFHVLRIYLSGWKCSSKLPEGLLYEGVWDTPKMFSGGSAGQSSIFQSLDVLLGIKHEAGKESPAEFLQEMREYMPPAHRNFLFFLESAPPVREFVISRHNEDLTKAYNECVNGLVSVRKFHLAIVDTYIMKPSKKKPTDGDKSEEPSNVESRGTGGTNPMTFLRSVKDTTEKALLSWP", "test": "IDO1 enzymatic activity by mass spectrometry assay", "assay_type": "biochemical", "conditions": "MS assay; geometric mean (95% confidence interval); read-out: Enzyme Activity IC50 mouse IDO1", "description": "as §1\n(§2) The inhibition of human, dog and mouse IDO1 was measured by quantitating tryptophan and the generation of kynurenine by MS. IDO1 enzyme (1 nM) was incubated with various concentrations of the inhibitor ([…] to 1 nM), in duplicate, at room temperature in […] buffer (Mg2+, Ca2+−PBS, 20 mM ascorbic acid, 10 mM methylene blue, 800 nM catalase, […]). […] The HCl stops the enzyme reactions and also converts the N-formyl kynurenine to kynurenine. […] Detection of tryptophan and kynurenine was accomplished following injection of assay reaction (injection loop volume is 10 μL) onto an Agilent Graphite Type D cartridge in 0.01% trifluoroacetic acid (TFA) plus 0.09% formic acid and eluted using 80% acetonitrile, 0.09% formic acid and 0.01% TFA. The finalized RapidFire settings were as follows: aspiration time: 600 ms or until the loop is full per the sip sensor, load time: 5000 ms, elution time: 5000 ms, and re-equilibration time: 500 ms at a flow rate of 1.5 mL/min."}, "[7]": {"target": "dog IDO1 (Canis lupus familiaris, UniProt A0A8I3N1Y1)", "sequence (A0A8I3N1Y1 1-402)": "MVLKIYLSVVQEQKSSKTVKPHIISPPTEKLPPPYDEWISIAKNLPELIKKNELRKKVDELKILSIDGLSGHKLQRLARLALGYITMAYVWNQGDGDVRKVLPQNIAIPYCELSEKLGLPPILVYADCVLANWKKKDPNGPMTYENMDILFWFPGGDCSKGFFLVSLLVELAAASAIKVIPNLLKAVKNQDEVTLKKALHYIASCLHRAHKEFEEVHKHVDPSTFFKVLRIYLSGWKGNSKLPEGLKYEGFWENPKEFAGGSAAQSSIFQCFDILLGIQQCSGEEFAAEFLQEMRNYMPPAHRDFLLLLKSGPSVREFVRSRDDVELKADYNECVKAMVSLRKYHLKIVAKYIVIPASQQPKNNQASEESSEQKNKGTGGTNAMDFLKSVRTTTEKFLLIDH", "test": "IDO1 enzymatic activity by mass spectrometry assay", "assay_type": "biochemical", "conditions": "dog enzyme; varied tryptophan and inhibitor concentrations", "description": "as §1, §2"}}, "data": [{"smiles": "O=C1CC(c2c[nH]c3ccc(F)cc23)C(=O)N1", "note": "(racemic) [Compound 1, 3-(5-fluoro-1H-indol-3-yl)pyrrolidine-2,5-dione]", "values": [{"measurement": "IC50", "setting": "[1]", "result": "> 50000", "unit": "nM"}, {"measurement": "Mean tumor volume on day 42", "setting": "[2]", "result": 457.0, "unit": "mm^3"}, {"measurement": "TGI (Tumor growth inhibition)", "setting": "[2]; day 42", "result": 26.2, "unit": "%"}, {"measurement": "mechanism of inhibition, preferred model fit", "setting": "[3]", "result": "uncompetitive inhibition"}, {"measurement": "% TGI (D17)", "setting": "[4]", "result": 32, "unit": "%"}, {"measurement": "% TGI (D20)", "setting": "[4]", "result": 49, "unit": "%"}, {"measurement": "Mean tumor volume on day 25", "setting": "[5]", "result": 443.7, "unit": "mm^3"}, {"measurement": "TGI (Tumor growth inhibition)", "setting": "[5]; day 25", "result": 43.4, "unit": "%"}, {"measurement": "IC50", "setting": "[6]", "result": 1500, "unit": "nM"}, {"measurement": "mechanism of inhibition, preferred model fit", "setting": "[7]", "result": "noncompetitive inhibition"}]}]}
